Measured values reported in patent US20210261594A1, “USE OF AVERMECTIN DERIVATIVE FOR INCREASING BIOAVAILABILITY AND EFFICACY OF MACROCYLIC LACTONES” (INSTITUT NATIONAL DE RECHERCHE POUR L'AGRICULTURE, …, priority 2011, published 2021).
Like-named read-outs stand apart in the source and are kept apart here. *1 amine or outer side, *2 acyl side, *3 side chain or, on linkers, in order; H or OH if unused. Where a SMILES comes first, the peptide text is derived from it. Bridges are numbered along the chain shown (N, C = ends). Roman numbers before positions name the chains, in order. [ ]: non-standard residue; d: D form. Actinocin(9to1) = Cc1c2oc3c(C)ccc(C(=O)[*:1])c3nc-2c(C(=O)[*:2])c(N)c1=O; NMeV = CN[C@H](C(=O)O)C(C)C; Sar = CNCC(=O)O

What was measured:
[1] = test system: multidrug resistant cells DC-3F/ADX; test: Reversal of actinomycin D resistance in DC-3F/ADX cells, MTT test; type: cell-based, Chinese hamster; conditions: for RF (IC50 for toxic drug alone/IC50 for toxic drug in the presence of compound): ActD; for RF (IC50 for toxic drug alone/IC50 for toxic drug in the presence of compound) / toxicity of actinomycin D when combined with the compound: compound at 5 μM
Text: (§1) Multidrug resistant tumor cells used in the present invention were Human lymphoma parental CEM and vinblastine-resistant CEM/VLB (Zordan-Nudpo et al., 1993) and parental […] and multidrug resistant cells DC-3F/ADX selected from spontaneously transformed DC-3F Chinese hamster lung fibroblasts on the basis of their resistance to actinomycin D (Biedler and Riehm, 1970). Both types of resistant cells overexpressed Pgp.
(§2) CEM/VLB cells and DC-3F/ADX cells described in aforementioned part 1.3 were plated into 96 well plates and allowed to grow for 24 h. They were then incubated 4 days with vinblastine (concentration range 0-1 μM) with or without IVM at 2.5 μM or ivermectin aglycone (IVM-Agly) at 2.5 and at 5 μM (FIG. 7); or 2 days with actinomycin D with actinomycin (concentration range 0.01-10 μM) with or without ivermectin (IVM) or ivermectin aglycone (IVM-Agly) at 5 μM (FIG. 8). Cytotoxicity was determined using the MTT test. IC50 values were graphically determined and they represent the concentration needed for half cell survival. Fold reversal of multidrug resistance called reversion factors were the ratio of IC50 for toxic drug alone/IC50 for toxic drug in the presence of IVM-Agly.

[2] = target: T1, rat GABA(A) receptor (α1, β2 and γ2 subunits) (Rattus norvegicus, UniProt P18508+P62813+P63138); test: GABA receptor affinity test, two-electrode voltage clamp in Xenopus oocytes; type: cell-based; conditions: for EC50: co-application with 2 μM GABA (EC10), Xenopus oocytes, read-out: EC50: concentration needed to induce half of the maximal potentiation of GABA effect; for agonist strength at GABA receptors, in words: compared to ivermectin
T1 construct: expressed in transfected cells; host or cells: Xenopus laevis oocytes injected with RNA
Description: The ability of ivermectin or moxidectin or ivermectin aglycone or ivermectin monosaccharide to interact with GABA receptors is assayed by electrophysiology measurements. Xenopus laevis oocytes are injected with 46 nl of RNA solution, with RNA coding for α1, β2 and γ2 subunits of the GABA channel at a ratio of 10:10:50 nM. The injected oocytes are incubated in modified Barth's solution [90 mM NaCl, 3 mM KCl, 0.82 mM MgSO4, 0.41 mM CaCl2, 0.34 mM Ca(NO3)2, 100 U/ml penicillin, 100 μg/ml streptomycin and 100 μg/ml kanamycin, 5 mM HEPES pH 7.6] at 18° C. for approximately 36 h before the measurements to ensure the expression of a functional receptor.
Electrophysiological experiments are performed by the two-electrode voltage-clamp method. Measurements were done in ND96 medium containing 96 mM NaCl, 2 mM KCl, 1 mM […], 1.8 mM CaCl2 and 5 mM HEPES, pH 7.5, at a holding potential of −80 mV. The control current is evoked by the application of 2 μM GABA and the normalized relative potentiation of 2 μM GABA-evoked currents by increasing concentration of ivermectin, moxidectin, ivermectin aglycone, or ivermectin monosaccharide is determined as:
[(IMLs+2 μM GABA/I2 μM GABA alone)/(I(MLs+2 μM GABA)Max/I2 μM GABA alone)]×100%
where I2 μM GABA is the control current evoked by 2 μM GABA, IMLs+2 μM GABA is the current evoked by each drug concentration in co-applications with 2 μM GABA, and I(MLs+2 μM GABA)Max is the maximal current evoked by co-applications of drugs and 2 μM GABA. A washout period of 4 min between each GABA application is introduced, allowing receptors to recover from desensitization. Three different batches of oocytes are used to collect data for each analysis. The perfusion system is cleaned between two experiments by washing with 10% DMSO after application of MLs derivatives to avoid contamination.

[3] = target: nematode Haemonchus contortus PgpA (HcPgpA) (Haemonchus contortus, UniProt O61301); test: Rhodamine 123 transport test in LLC-PK1-HcPgpA cells overexpressing nematode Pgp; type: cell-based; conditions: for EC50: LLC-PK1-HcPgpA cells, read-out: EC50, concentration of half inhibitory effect, Nematode PgpA
Description: (§3) The cells used were LLC-PK1, pig kidney epithelial cell lines, and LLC-PK1-mdr1a which are recombinant LLC-PK1 cells overexpressing murine abcb1a gene. All cell lines are available in INRA laboratory. The transfected cell line LLC-PK1-HcPgpA, which overexpress nematode Haemonchus contortus PgpA, was developed by R. Prichard (McGill University). Cells were cultured in medium 199 supplemented with penicillin (100 units/ml), streptomycin ([…]), 10% of foetal calf serum and geneticin G418 (400 mg/1) as selecting compound for the LLC-PKI-mdr1a and LLC-PK1-HcPgpA cells. All compounds and medium are from Invitrogen, Cergy Pontoise, France. Cells were seeded on 24-well plates (Sarstedt, Orsay, France) at 2×10^5 cells/well in G418-free medium until confluence for transport activity and on 96-well plates for viability assay.
(§4) Cells were cultured with rhodamine 123 (10 μM, purchased from Sigma) with or without valspodar (VSP, […]). Compounds of interest were dissolved in DMSO and diluted in the medium (final DMSO concentration=0.1%) in a concentration range of 0.1-50 μM. After the 2-h incubation period, the cells were lysed and lysates were stored at −20° C. until analysis. To study the Pgp transport activity, the intracellular accumulation of fluorescent Rho 123 was determined by reading fluorescence in the cell lysates with a spectrofluorimeter (PerkinElmer LS50B, max excitation=507 nm; max emission=529 nm). Protein concentration was determined in lysates with BCA kit using bovine serum albumin as protein standard (Thermo scientific) Results were expressed as fluorescence arbitrary units after normalization to cellular protein content per well.

[4] = test system: Caenorhabditis elegans resistant to ivermectin (IVR10); test: Ivermectin resistance gravid assay in Caenorhabditis elegans IVR10; type: in vivo; conditions: for RF: C. elegans IVR10, IC50 IVM alone / IC50 IVM with reversal agent; for effect of the agent alone on the development of C. elegans: verapamil at 8 μM, IVM-Agly at 10 ng/ml
Description: A gravid assay method, based on the development of eggs to gravid adults over a 96 hr incubation period, was used to determine the resistance with respect to ivermectin (IVM) in C. elegans. The eggs were collected through rinsing the C. elegans worms resistant to IVM (IVR10). Sixty eggs were incubated/well, in standard conditions for four days (96 hours) in order reach adulthood (gravid) in the presence of drugs as followed: ivermectin aglycone (IVM-Agly) alone at 10 ng/ml (11.4 nM); verapamil (VRP) alone at 8 μM; IVM alone: […]; IVM+VRP 8 μM: 0, 1, 2, 4, 6, 8, 10, 20 ng/ml IVM; IVM+IVM-Agly 10 ng/ml: 0, 1, 2, 4, 6, 8, 10, 20 ng/ml ([…]) IVM. Assays were performed in triplicates per condition treatment and the experiment was performed 3 times.

murine Pgp (mdr1a) = target: T2, murine Pgp (mdr1a) (Mus musculus, UniProt P21447); test: Rhodamine 123 transport test in LLC-PK1-mdr1a cells overexpressing murine Pgp; type: cell-based; conditions: LLCPK1-mdr1a cells; for Cmax: concentration to obtain maximum inhibitory effect / Emax: maximum effect compared to maximum effect obtained with 5 μM of valspodar: rhodamine 123
T2 construct: expressed in transfected cells; host or cells: LLC-PK1 pig kidney epithelial cells (LLC-PK1-mdr1a), available in the INRA laboratory
Description: as §3, §4

Mdr1ab−/− mice = test: In vivo toxicity test in Pgp-deficient mice; conditions: mouse, sc
Description: Wild-type and the Pgp knock-out mdr1ab^−/− mice with a FVB genetic background were obtained from Taconic (NY, USA). In rodents, there are two Pgps encoded by abc1a and abc1b genes and mdr1ab^−/− mice were deficient for the two gene products. Mice were housed at INRA's transgenic rodent facility at 22±2° C. under 12-hour light/dark cycles. Animals sampling was designed to reduce the influence of interfering parameters such as litter specificity (seven to nine different litters for a ten animals group). Mice received a standard chow diet recommended for the breeding and rearing of rodents (Harlan Teklad TRM Rat/Mouse Diet; Harlan Teklad, Gannat, France). Water and food were available ad libitum. In vivo studies were conducted in mice under European laws on the protection of animals and protocols are performed under procedure and principal for good clinical practice.
Toxicity of ivermectin and ivermectin aglycone is measured in Pgp-deficient mice. Mdr1ab^−/− mice are injected subcutaneously with increasing doses of ivermectin or ivermectin aglycone formulated in propylene glycol/[…] (60:40, v/v). Higher injected doses are 1.5 mg/kg (1.7 μmol/kg) for ivermectin and 16 mg/kg (27 μmol/kg) for ivermectin aglycone, respectively. Toxicity is evaluated during 24 h. […]

[5] = test system: Human lymphoma parental CEM cells; test: Vinblastine cytotoxicity in parental CEM cells, MTT test; type: cell-based; conditions: at concentrations below 0.001 μM
Text: as §1, §2

[6] = test system: vinblastine-resistant CEM/VBL cells; test: Reversal of vinblastine resistance in CEM/VBL cells, MTT test; type: cell-based, Human; conditions: 1 μM vinblastine
Text: as §1, §2

[7] = Table 2, read-out: EC50, concentration of half inhibitory effect, Murine Pgp

T2 sequence (P21447 whole entry): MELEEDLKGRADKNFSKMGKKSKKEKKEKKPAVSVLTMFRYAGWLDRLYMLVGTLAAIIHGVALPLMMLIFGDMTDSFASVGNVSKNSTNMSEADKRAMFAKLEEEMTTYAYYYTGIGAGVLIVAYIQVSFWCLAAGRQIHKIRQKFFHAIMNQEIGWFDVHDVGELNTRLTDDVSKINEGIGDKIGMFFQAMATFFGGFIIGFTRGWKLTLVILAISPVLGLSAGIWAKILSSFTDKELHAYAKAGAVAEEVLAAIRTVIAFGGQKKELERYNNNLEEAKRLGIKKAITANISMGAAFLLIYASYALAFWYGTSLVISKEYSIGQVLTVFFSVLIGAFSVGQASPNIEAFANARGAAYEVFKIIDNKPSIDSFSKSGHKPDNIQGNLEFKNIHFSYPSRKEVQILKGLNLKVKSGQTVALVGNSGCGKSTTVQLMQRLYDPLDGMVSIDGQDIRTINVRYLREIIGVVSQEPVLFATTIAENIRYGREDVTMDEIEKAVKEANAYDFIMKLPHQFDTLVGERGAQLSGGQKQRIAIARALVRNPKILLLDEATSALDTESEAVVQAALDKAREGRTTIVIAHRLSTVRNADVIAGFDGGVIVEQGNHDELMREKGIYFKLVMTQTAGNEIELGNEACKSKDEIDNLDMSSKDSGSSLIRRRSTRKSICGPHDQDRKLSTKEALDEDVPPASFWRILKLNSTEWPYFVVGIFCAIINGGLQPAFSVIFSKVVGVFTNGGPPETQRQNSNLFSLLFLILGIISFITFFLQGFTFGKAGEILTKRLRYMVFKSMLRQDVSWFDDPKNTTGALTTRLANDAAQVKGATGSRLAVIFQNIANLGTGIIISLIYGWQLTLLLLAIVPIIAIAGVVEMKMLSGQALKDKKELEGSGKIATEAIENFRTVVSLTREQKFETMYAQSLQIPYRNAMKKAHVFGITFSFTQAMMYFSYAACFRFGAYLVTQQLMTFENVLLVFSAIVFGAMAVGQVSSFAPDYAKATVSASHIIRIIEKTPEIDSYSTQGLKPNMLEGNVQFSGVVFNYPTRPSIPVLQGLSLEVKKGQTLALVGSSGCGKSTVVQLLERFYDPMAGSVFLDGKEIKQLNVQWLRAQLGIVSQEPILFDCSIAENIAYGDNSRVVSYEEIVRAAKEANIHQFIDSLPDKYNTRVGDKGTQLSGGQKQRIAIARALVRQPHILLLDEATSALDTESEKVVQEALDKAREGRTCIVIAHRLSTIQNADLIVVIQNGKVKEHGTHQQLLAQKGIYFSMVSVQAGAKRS
Sequence of nematode Haemonchus contortus PgpA (HcPgpA) (O61301 entry or part of it): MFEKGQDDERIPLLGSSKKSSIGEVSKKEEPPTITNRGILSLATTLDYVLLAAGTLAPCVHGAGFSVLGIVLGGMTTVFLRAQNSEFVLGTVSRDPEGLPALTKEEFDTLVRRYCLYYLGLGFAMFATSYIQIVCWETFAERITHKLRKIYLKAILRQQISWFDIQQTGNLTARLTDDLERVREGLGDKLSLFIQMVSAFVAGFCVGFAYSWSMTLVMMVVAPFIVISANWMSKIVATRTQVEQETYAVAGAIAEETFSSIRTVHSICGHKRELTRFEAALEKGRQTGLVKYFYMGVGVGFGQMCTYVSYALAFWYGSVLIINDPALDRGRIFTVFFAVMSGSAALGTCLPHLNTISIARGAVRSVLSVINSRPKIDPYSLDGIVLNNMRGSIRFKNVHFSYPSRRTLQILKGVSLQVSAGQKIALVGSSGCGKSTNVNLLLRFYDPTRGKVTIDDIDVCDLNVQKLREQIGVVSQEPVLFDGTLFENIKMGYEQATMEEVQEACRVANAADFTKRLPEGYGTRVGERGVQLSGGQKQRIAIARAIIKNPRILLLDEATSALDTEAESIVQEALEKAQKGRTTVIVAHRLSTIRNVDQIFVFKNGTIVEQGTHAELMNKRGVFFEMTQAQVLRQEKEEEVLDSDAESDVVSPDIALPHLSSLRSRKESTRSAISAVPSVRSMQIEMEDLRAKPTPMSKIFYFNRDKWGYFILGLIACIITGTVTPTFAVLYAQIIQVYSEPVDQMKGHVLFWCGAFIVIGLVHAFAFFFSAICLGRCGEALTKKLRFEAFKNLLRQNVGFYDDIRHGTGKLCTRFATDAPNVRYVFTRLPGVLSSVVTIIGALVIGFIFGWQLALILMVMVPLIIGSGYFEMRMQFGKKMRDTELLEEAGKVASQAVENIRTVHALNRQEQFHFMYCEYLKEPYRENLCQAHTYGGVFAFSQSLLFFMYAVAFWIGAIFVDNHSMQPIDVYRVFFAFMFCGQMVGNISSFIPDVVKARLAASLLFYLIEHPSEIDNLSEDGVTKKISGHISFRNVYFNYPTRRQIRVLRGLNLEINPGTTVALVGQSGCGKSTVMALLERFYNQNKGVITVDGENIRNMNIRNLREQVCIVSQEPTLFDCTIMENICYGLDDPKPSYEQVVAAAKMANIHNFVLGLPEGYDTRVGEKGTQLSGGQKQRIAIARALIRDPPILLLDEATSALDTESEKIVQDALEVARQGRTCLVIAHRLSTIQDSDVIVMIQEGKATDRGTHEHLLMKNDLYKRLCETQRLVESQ
T1 sequence (P62813 28-455): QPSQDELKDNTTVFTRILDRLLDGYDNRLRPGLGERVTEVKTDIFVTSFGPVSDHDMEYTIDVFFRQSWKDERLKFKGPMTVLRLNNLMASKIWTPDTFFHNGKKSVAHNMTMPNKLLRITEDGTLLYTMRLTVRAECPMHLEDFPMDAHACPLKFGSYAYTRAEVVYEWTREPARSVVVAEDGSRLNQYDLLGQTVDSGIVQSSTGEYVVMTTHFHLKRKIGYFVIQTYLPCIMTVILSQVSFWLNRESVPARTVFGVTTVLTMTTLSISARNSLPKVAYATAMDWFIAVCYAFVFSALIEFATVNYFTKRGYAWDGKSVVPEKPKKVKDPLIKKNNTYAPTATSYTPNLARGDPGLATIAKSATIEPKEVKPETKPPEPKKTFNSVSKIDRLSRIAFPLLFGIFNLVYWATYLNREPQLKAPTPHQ
T1 sequence (P63138 25-474 limits assumed): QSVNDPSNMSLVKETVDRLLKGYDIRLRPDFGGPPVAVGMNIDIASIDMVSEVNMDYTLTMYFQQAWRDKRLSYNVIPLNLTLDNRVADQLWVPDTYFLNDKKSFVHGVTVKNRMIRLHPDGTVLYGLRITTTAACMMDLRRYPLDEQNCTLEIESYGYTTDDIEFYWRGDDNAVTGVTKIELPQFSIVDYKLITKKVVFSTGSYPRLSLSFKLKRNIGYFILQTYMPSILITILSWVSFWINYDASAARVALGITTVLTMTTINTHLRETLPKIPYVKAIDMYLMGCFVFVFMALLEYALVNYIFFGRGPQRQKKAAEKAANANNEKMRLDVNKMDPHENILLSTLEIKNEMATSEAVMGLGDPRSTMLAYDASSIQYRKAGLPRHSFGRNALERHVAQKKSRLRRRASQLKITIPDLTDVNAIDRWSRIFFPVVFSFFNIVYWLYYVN
T1 sequence (P18508 39-466): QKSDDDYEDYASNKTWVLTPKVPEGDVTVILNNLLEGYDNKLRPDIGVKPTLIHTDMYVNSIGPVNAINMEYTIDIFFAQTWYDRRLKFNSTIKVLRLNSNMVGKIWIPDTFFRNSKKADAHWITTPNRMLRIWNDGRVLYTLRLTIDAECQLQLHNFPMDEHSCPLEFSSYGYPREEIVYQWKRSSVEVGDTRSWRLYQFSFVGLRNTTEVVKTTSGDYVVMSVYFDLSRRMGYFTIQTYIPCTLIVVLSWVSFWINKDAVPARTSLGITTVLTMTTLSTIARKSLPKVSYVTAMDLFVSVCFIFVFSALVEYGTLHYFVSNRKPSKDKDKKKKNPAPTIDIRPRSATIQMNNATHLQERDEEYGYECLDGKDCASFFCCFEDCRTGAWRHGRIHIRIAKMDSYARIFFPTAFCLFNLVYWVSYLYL

Cc1c2oc3c(C)ccc(C(=O)N[C@@H]4C(=O)N[C@H](C(C)C)C(=O)N5CCC[C@H]5C(=O)N(C)CC(=O)N(C)[C@@H](C(C)C)C(=O)O[C@@H]4C)c3nc-2c(C(=O)N[C@@H]2C(=O)N[C@H](C(C)C)C(=O)N3CCC[C@H]3C(=O)N(C)CC(=O)N(C)[C@@H](C(C)C)C(=O)O[C@@H]2C)c(N)c1=O [ActD, actinomycin D] (I: T[dV]P[Sar][NMeV] / II: T[dV]P[Sar][NMeV]; ester I:1-I:C, II:1-II:C; linker I:N-II:N via Actinocin(9to1))
DC-3F/ADX viability with actinomycin D alone ([1]; 1 μM actinomycin D): not altered
IC50 ([1]; DC-3F/ADX cells, MTT, read-out: IC50 of actinomycin D alone): 5 µM

CCC(C)C1OC2(CCC1C)CC1CC(CC=C(C)C(OC3CC(OC)C(O)C(C)O3)C(C)C=CC=C3COC4C(O)C(C)=CC(C(=O)O1)C34O)O2 (stereo not shown) [IVM Monosaccharide]
EC50 [2]: 122 nM
agonist strength at GABA receptors, in words [2]: weak agonist

CCC(C)C1OC2(CCC1C)CC1CC(CC=C(C)C(O)C(C)C=CC=C3COC4C(O)C(C)=CC(C(=O)O1)C34O)O2 (stereo not shown) [Ivermectin aglycone, 22,23-dihydroavermectin B1 aglycone]
EC50 [2]: 215 nM
agonist strength at GABA receptors, in words [2]: weak agonist
EC50 [3]: 500 nM
inhibitory potency for parasite HcPgpA relative to mammalian Pgp ([3]; ratio of EC50 murine Pgp / HcPgpA, 120 min): 5 times
RF [4]: 1.5
effect of the agent alone on the development of C. elegans [4]: had no effects
RF (IC50 for toxic drug alone/IC50 for toxic drug in the presence of compound) ([1]; DC-3F/ADX cells): 62
toxicity of actinomycin D when combined with the compound ([1]; DC-3F/ADX cells): became toxic
Cmax: concentration to obtain maximum inhibitory effect (murine Pgp (mdr1a)): 10.0 µM
Emax: maximum effect compared to maximum effect obtained with 5 μM of valspodar (murine Pgp (mdr1a)): 80.0 % valspodar ®
Cmax: concentration to obtain maximum inhibitory effect (murine Pgp (mdr1a); listed as ivermectin aglycone): about 10 μM
EC50 (murine Pgp (mdr1a); Table 1, read-out: EC50: effective concentration for inhibiting 50% of transport of rhodamine 123 by murine Pgp): 1000 nM
EC50 (murine Pgp (mdr1a); [7]): 2500 nM
toxicity in words (Mdr1ab−/− mice): does not show any toxicity

CO/N=C1\C[C@]2(C[C@@H]3C[C@@H](C/C=C(\C)C[C@@H](C)/C=C/C=C4\CO[C@@H]5[C@H](O)C(C)=C[C@@H](C(=O)O3)[C@]45O)O2)O[C@H](/C(C)=C/C(C)C)[C@H]1C [MOX, moxidectin]
EC50 [2]: 5.6 ± 1.5 nM

CC[C@]1(O)C[C@@H]2CN(CCc3c([nH]c4ccccc34)[C@@](C(=O)OC)(c3cc4c(cc3OC)N(C)[C@H]3[C@@](O)(C(=O)OC)[C@H](OC(C)=O)[C@]5(CC)C=CCN6CC[C@]43[C@@H]65)C2)C1 [VBL, vinblastine]
sensitivity of parental cells to VBL [5]: highly sensitive
viability of CEM/VBL cells in vinblastine alone [6]: fully viable

COc1ccc(CCN(C)CCCC(C#N)(c2ccc(OC)c(OC)c2)C(C)C)cc1OC (stereo not shown) [verapamil]
RF [4]: 2.1
effect of the agent alone on the development of C. elegans [4]: had no effects

ivermectin
EC50 ([2]; listed as IVM): 29.3 ± 3.4 nM
EC50 [2]: 29 nM
EC50 [3]: 600 nM
IC50 of IVM alone ([4]; C. elegans IVR10, egg to gravid adult, 96 h): 6.8 ± 0.2 ng/mL
IC50 ([4]; C. elegans IVR10, egg to gravid adult, 96 h, read-out: IC50 of IVM alone): 7.8 ± 0.2 nM
concentration blocking the development of C. elegans IVR10 eggs ([4]; IVM alone): ~10 nM
RF (IC50 for toxic drug alone/IC50 for toxic drug in the presence of compound) ([1]; DC-3F/ADX cells): 45
toxicity of actinomycin D when combined with the compound ([1]; DC-3F/ADX cells): became toxic
Cmax: concentration to obtain maximum inhibitory effect (murine Pgp (mdr1a)): 5.0 µM
Emax: maximum effect compared to maximum effect obtained with 5 μM of valspodar (murine Pgp (mdr1a)): 88.0 % valspodar ®
EC50 (murine Pgp (mdr1a); [7]): 500 nM
